This is an account of results in patent US9204649B2 (priority 2011, dated 2015).

Usually logP stands for a log measure of how a compound divides between an organic and an aqueous phase. A low value points to lower lipophilicity. As a reminder, the chromatographic logP is a lipophilicity value derived from retention on a column.

Data set [1] is described as follows: log P (pH 2.7) given with the preparation examples. It counts as physicochemical. The conditions noted are these: for logP: pH 2.7, pH 2.7.
In a further data set the test system is Phytophthora infestans. The format is in vivo. Conditions: tomato young plants, protective spray, active ingredient concentration 10 ppm, evaluation 3 days after inoculation; 0% = control, 100% = no infection.

Each structure is given as a SMILES string.

With `CC(C)(C)OC(=O)N1CCC(c2nc(C=NO)cs2)CC1` [A, tert-Butyl 4-{4-[(hydroxyimino)methyl]-1,3-thiazol-2-yl}piperidine-1-carboxylate], the “log P (pH 2.7)” value in data set [1] (pH 2.7) stood at 2.38. Besides, the lipophilicity (logP) in data set [1] was 2.25.
Turning to `CCOC(=O)C1CC(c2csc(C3CCN(C(=O)OC(C)(C)C)CC3)n2)=NO1` (stereo not drawn) [B, tert-Butyl 4-{4-[5-(ethoxycarbonyl)-4,5-dihydro-1,2-oxazol-3-yl]-1,3-thiazol-2-yl}piperidine-1-carboxylate], the lipophilicity (logP) in data set [1] was 3.14.
On to `O=C(O)C1CC(c2csc(C3CCN(C(=O)Cn4nc(C(F)F)cc4C(F)F)CC3)n2)=NO1` (stereo not drawn) [D, 3-[2-(1-{[3,5-Bis(difluoromethyl)-1H-pyrazol-1-yl]acetyl}piperidin-4-yl)-1,3-thiazol-4-yl]-4,5-dihydro-1,2-oxazole-5-carboxylic acid], for which the logP in data set [1] worked out at 1.77.
Turning to `COC(=O)C1CC(c2csc(C3CCN(C(=O)Cn4nc(C(F)F)cc4C(F)F)CC3)n2)=NO1` (stereo not drawn) [Example I-1, methyl 3-[2-(1-{[3,5-bis(difluoromethyl)-1H-pyrazol-1-yl]acetyl}piperidin-4-yl)-1,3-thiazol-4-yl]-4,5-dihydro-1,2-oxazole-5-carboxylate], the chromatographic logP in “physchem” (pH 2.3) and in “physchem” (pH 7.8) was 2.28 in each case. Further, the “Eff (efficacy)” value in the data set with Phytophthora infestans is recorded as 75%. Moreover, the lipophilicity (logP) in data set [1] came out at 2.26.
With `O=C(OC1CCCCC1Cl)C1CC(c2csc(C3CCN(C(=O)Cn4nc(C(F)F)cc4C(F)F)CC3)n2)=NO1` (stereo not drawn) [Example I-5, 2-Chlorocyclohexyl 3-[2-(1-{[3,5-bis(difluoromethyl)-1H-pyrazol-1-yl]acetyl}piperidin-4-yl)-1,3-thiazol-4-yl]-4,5-dihydro-1,2-oxazole-5-carboxylate], the chromatographic logP turned out to be 3.42 in the data set “physchem” (pH 2.3) and 3.5 in the data set “physchem” (pH 7.8). Further, the “Eff (efficacy)” value in the data set with Phytophthora infestans is given as 93%. The same compound returned a logP in data set [1] (reversed-phase HPLC column (C18)) of 3.43.
